Data taken from article PMC5829162, “Rational Design, Synthesis and Biological Evaluation of Pyrimidine-4,6-diamine derivatives as Type-II inhibitors of FLT3 Selective Against c-KIT” (Scientific Reports, 2018).
Read-outs that look alike come from different tables or passages of the source.

Columns and labels:
c-KIT = c-KIT (Homo sapiens, UniProt P10721); test: Biochemical kinase selectivity assay, c-KIT
FLT3 kinase = molecular target: T1, FLT3 kinase (Homo sapiens, UniProt P36888); test: Mechanism of inhibition (pre-incubation time and ATP concentration), FLT3; format: biochemical
T1 construct: purchased Invitrogen
T1 sequence (P36888 27-993): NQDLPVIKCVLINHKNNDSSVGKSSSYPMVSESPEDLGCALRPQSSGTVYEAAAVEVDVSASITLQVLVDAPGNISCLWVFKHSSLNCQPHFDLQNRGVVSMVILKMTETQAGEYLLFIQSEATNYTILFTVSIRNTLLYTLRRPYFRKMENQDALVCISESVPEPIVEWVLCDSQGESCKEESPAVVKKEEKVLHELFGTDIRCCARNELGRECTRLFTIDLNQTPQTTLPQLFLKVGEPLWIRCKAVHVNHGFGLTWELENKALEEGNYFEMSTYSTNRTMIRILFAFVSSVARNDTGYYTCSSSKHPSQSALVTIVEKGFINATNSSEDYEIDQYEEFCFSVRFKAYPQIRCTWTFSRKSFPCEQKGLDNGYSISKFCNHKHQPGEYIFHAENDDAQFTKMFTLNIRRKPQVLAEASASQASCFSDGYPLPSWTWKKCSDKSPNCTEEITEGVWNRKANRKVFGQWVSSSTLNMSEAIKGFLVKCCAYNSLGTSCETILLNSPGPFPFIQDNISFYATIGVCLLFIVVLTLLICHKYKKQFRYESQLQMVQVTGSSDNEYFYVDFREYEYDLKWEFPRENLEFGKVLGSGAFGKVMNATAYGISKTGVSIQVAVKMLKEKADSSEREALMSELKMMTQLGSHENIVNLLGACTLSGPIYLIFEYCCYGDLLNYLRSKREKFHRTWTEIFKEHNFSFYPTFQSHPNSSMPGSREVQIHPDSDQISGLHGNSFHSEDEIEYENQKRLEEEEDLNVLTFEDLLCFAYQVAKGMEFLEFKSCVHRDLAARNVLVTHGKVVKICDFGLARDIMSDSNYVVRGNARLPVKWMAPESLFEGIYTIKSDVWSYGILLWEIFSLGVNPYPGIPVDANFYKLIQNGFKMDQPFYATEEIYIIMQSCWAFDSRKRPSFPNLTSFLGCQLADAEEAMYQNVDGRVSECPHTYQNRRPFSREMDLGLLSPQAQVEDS
Protocol: Compound 13a was pre-incubated with the FLT3 kinase at 1, 3, 5, 10, 20, 30, 50, and 90 minutes. After the pre-incubation, IC50 values at each incubation interval was determined according to the procedure outlined in section 4.3. In a separate experiment, compound 13a was pre-incubated with the FLT3 kinase for 60 minutes. […] To determine IC50 values at each concentration of ATP, the same procedure was followed as outlined in section S10.
S10. Biochemical Inhibition Assay:1,2 Kinase activity was measured in a microfluidics assay that monitors the separation of a phosphorylated product from substrate. The assay was run using a 12-sipper chip on a Caliper EZ Reader II (PerkinElmer®, Walthman, USA) with separation buffer (100 mM HEPES, 10 mM EDTA, 0.015% Brij-35, 0.1% CR-3 [PerkinElmer®, Walthman, USA]). In 96-well polypropylene plates (Greiner, Frickenhausen, Germany) compound stocks (20 mM in DMSO) were diluted into kinase buffer (50 mM HEPES, 0.075% […]
dilutions (2 mM–6.32 nM). After, 1 μL was transferred into a 384-well polypropylene assay plate (Greiner, Frickenhausen, Germany). The FLT3 enzyme (Invitrogen™, Grand Island, USA) was diluted in kinase buffer to a concentration of 2 nM and 5 µL of the enzyme mixture was transferred to the assay plate. The inhibitors/FLT3 enzyme were incubated for 60 minutes with minor shaking. A substrate mix was prepared containing ATP (Ambresco®, Solon, USA) and 5FAM tagged FLT3 peptide (peptide #22, 5’ FAM-EPLYWSFPA, PerkinElmer®, Walthman, USA) dissolved in kinase buffer, and 5 µL of the substrate mix was added to the assay plate.
Running concentrations were as follows: ATP (190 µM), peptide (1.5 µM), compound 12-point ½log dilutions (0.2 mM–0.632 nM). For positive control, no inhibitor was added. For negative control, no enzyme was added. For running control, quizartinib was utilized. The plate was run until 10-20% conversion based on the positive control wells. The following separation conditions were utilized: upstream voltage -500V; downstream voltage, -1900V; chip pressure - 0.8. Percent inhibition was measured for each well comparing starting peptide to phosphorylated product peaks relative to the baseline. Dose response curves, spanning the IC50 dose, were generated in GraphPad Prisim 6 and fit to an exponential one-phase decay line and IC50 values were obtained from the half-life value of the curve. IC50 values were generated in duplicate and error was calculated from the standard deviation between values.
S11. Mechanism of Inhibition Procedure: Compound 13a was pre-incubated with the FLT3 kinase at 1, 3, 5, 10, 20, 30, 50, and 90 minutes. After the pre -incubation, IC50 values at each incubation interval was determined according to the procedure outlined in section 4.3. […]

FLT3-driven cell lines = test: Cell-based studies, FLT3-driven cell lines overall; settings: range over the FLT3 cell lines
Excerpt: Stable BaF3 populations expressing activated FLT3 were generated by retroviral spinfection with the appropriate mutated plasmid followed by selection and growth factor withdrawal as previously described. The BaF3 cell line was originally obtained from the laboratory of Charles Sawyers and has not been authenticated. MV411 and Molm14 cells were obtained from the laboratory of Scott Kogan and authenticated by Promega STR analysis in June 2013. All cell lines were mycoplasma-free. Cells were incubated with compounds for 48 hours and proliferation was assessed using CellTiter-Glo (Promega; Madison, WI) according to the manufacturer’s recommendation on a SpectraMax M3 microplate reader using SpectraMax Software (Molecular Devices; Sunnyvale, CA). All cell viability data shown is reflective of experiments performed a minimum of three times. […]
S13. […]
2013. […] Cells were incubated with compounds for 48 hours and proliferation was assessed using CellTiter -Glo (Promega; Madison, WI) according to the manufacturer’s recommendation on a SpectraMax M3 microplate reader using SpectraMax Software (Molecular Devices; Sunnyvale, CA). […]

Chain of c-KIT (P10721 26-976): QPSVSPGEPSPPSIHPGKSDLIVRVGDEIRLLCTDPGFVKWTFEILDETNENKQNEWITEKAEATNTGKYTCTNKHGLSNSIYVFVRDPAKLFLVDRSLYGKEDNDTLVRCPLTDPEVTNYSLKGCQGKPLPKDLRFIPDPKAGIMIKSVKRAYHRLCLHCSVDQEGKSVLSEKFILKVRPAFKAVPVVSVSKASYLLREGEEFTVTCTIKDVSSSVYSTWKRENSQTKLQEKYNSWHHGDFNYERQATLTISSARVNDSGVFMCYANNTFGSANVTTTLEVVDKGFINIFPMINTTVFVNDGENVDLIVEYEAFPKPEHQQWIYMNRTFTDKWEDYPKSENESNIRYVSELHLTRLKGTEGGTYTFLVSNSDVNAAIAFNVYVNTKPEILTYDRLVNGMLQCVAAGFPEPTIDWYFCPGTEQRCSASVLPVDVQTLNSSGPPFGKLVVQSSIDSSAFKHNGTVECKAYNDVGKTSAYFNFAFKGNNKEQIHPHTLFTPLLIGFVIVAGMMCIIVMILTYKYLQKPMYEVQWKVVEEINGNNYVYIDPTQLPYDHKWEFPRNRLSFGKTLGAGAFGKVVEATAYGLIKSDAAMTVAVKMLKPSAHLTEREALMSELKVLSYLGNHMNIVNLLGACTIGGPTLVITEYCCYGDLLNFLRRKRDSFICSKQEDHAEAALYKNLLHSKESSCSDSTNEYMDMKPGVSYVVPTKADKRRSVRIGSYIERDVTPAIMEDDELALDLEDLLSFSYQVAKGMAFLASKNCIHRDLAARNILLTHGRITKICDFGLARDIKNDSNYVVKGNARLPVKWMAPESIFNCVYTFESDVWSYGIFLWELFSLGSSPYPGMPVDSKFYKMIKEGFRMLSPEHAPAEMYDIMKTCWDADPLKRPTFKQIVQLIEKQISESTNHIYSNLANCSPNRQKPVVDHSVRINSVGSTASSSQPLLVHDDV

Cn1nc(C(C)(C)C)cc1NC(=O)Cc1ccc(Nc2cc(Nc3ccc(S(C)(=O)=O)cc3)ncn2)cc1 [13a, 2-(4-(6-(4-(Methylsulfonyl)phenylamino)pyrimidin-4-ylamino)phenyl)-N-(3-tert-butyl-1-methyl-1H-pyrazol-5-yl)acetamide]
IC50 (c-KIT; as printed in Fig. 2, read-out: cKit IC50): 8800 nM | IC50 (c-KIT; in vitro kinase assay, read-out: c-KIT IC50 (nM) ± SD): 8800 nM | selectivity for FLT3 over c-KIT (c-KIT; in vitro kinase assays): > 500 fold | effect of an increase in ATP concentration on FLT3 IC50 (FLT3 kinase; 5-160 µM ATP, 60 minutes pre-incubation, p > 0.05): did not cause a statistically significant increase | mechanism of inhibition (FLT3 kinase; from pre-incubation and ATP variation studies): non-competitive, Type-II kinase inhibitor | change of FLT3 IC50 from no incubation to a 90-minute pre-incubation (FLT3 kinase; p < 0.05): statistically significant decrease | pre-incubation required to reach maximal inhibition of the FLT3 kinase (FLT3 kinase; pre-incubation 1-90 minutes): approximately 60 minutes | GI50 (FLT3-driven cell lines): 0.009 to 2 µM
